Data as given in US8822449B2, “Substituted aminoindanes and analogs thereof, and the pharmaceutical use thereof” (Sanofi, priority 2008, dated 2014).
pIC50: −log10 of the molar value.

What follows are compounds tested against T1, sodium-proton exchanger of subtype 3 (NHE3) (Homo sapiens, UniProt P48764) (assay: Recovery of intracellular pH (pHi) after acidification in LAP1 cells stably expressing NHE3 (BCECF fluorescence, FLIPR)). Details: LAP1 cells stably expressing NHE3; pH recovery after acidification; range 1 is % inhibition at 10 μM; read-out: Activity range (inhibitory effect on NHE3).
T1 construct: expressed in transfected cells
T1 sequence (P48764 26-834): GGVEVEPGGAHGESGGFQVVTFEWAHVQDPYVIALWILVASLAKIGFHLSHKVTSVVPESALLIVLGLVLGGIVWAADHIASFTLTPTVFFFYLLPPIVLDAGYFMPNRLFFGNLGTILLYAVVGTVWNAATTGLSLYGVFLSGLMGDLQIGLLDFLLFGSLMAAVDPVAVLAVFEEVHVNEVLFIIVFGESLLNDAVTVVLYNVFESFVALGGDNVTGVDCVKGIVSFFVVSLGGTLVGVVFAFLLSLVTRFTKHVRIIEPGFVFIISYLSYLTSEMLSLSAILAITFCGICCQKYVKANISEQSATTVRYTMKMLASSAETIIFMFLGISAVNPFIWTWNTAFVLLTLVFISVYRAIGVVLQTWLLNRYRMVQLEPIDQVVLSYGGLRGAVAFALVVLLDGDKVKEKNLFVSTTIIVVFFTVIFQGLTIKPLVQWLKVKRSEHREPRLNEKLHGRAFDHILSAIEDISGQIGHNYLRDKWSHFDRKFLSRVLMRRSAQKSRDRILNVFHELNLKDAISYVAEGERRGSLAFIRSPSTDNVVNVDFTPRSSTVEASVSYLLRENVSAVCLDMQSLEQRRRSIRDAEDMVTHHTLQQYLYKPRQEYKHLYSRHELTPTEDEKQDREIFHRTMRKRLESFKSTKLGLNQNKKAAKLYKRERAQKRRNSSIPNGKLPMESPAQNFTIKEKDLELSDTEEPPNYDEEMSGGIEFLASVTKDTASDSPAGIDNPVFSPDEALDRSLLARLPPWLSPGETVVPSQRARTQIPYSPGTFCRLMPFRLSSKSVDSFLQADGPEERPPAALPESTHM
Type: cell-based

| inhibition at 10 µM | pIC50 | SMILES |
| --- | --- | --- |
| 20 to 50% |  | Cc1cccc(Cl)c1O[C@H]1c2ccccc2CC[C@@H]1N1CCC[C@@H](N)C1 (racemic) [Example 39, (R)-1-[rac-trans-(1,2)-1-(2-chloro-6-methylphenoxy)-1,2,3,4-tetrahydronaphthalen-2-yl]piperidin-3-ylamine] |
|  | 5.00 to 6.00 | NCC1CCN([C@@H]2Cc3ccccc3[C@H]2Oc2ccc(S(N)(=O)=O)c(Cl)c2Cl)CC1 (racemic) [Example 545, 4-[rac-trans-(1,2)-2-(4-aminomethylpiperidin-1-yl)indan-1-yloxy]-2,3-dichlorobenzenesulfonamide] |
|  | 5.00 to 6.00 | NCC1CCN([C@@H]2Cc3ccccc3[C@H]2Oc2ccc(N3CCNCC3)cc2)CC1 (racemic) [Example 619, C-{1-[rac-trans-(1,2)-1-(4-piperazin-1-ylphenoxy)indan-2-yl]piperidin-4-yl}methylamine] |
|  | 5.00 to 6.00 | Cc1nnc(C)n1-c1ccc(O[C@H]2c3cc(Cl)cc(F)c3C[C@@H]2NC2CCCC2)c(F)c1 [Example 749, {trans-(1S,2S)-6-Chloro-1-[4-(3,5-dimethyl-[1,2,4]triazol-4-yl)-2-fluoro-phenoxy]-4-fluoro-indan-2-yl}-cyclopentyl-amine] |
|  | 5.00 to 6.00 | CN(C)S(=O)(=O)c1cc(Cl)c(O[C@H]2c3ccccc3C[C@@H]2N2CCCC2)c(Cl)c1 (racemic) [Example 403, 3,5-dichloro-N,N-dimethyl-4-(rac-trans-(1,2)-2-pyrrolidin-1-ylindan-1-yloxy)benzenesulfonamide] |
| 20 to 50% |  | N[C@H]1CCCN([C@H]2CCc3ccccc3[C@@H]2Oc2cc(F)cc(Cl)c2)C1 (racemic) [Example 162, (S)-1-[rac-trans-(1,2)-1-(3-chloro-5-fluorophenoxy)-1,2,3,4-tetrahydronaphthalen-2-yl]piperidin-3-ylamine] |
| 20 to 50% |  | NS(=O)(=O)c1ccc(O[C@H]2c3ccccc3C[C@@H]2CN2CCCCC2)c(Cl)c1 (racemic) [Example 440, 3-chloro-4-(2-piperidin-1-ylmethylindan-1-yloxy)benzenesulfonamide] |
|  | > 6.00 | Cc1nnc(C)n1-c1ccc(O[C@H]2c3cc(Cl)cc(Cl)c3C[C@@H]2N2CCCN(C)CC2)cc1 [Example 349, 1-{trans-(1S,2S)-4,6-dichloro-1-[4-(3,5-dimethyl-[1,2,4]triazol-4-yl)phenoxy]indan-2-yl}-4-methyl-[1,4]diazepane] |
|  | 5.00 to 6.00 | Cc1c(Cl)cccc1O[C@@H]1c2ccccc2C[C@H]1N1C[C@H]2CNC[C@H]2C1 (racemic) [Example 6, 2-[rac-trans-(1,2)-1-(3-chloro-2-methylphenoxy)indan-2-yl]octahydropyrrolo[3,4-c]pyrrole] |
|  | > 6.00 | Cn1ccn(-c2cccc(O[C@H]3c4ccccc4C[C@@H]3N3CCCC3)c2)c1=O (racemic) [Example 352, 1-methyl-3-[3-(rac-trans-(1,2)-2-pyrrolidin-1-ylindan-1-yloxy)phenyl]-1,3-dihydroimidazol-2-one] |
|  | > 6.00 | CS(=O)(=O)c1ccc(O[C@H]2c3ccccc3C[C@@H]2N2CCCC2)cc1 (racemic) [Example 273, 1-[rac-trans-(1,2)-1-(4-methanesulfonylphenoxy)indan-2-yl]pyrrolidine] |
|  | > 6.00 | N[C@@H]1CCCN([C@H]2Cc3c(Cl)cc(Cl)cc3[C@@H]2Oc2ccc(S(N)(=O)=O)c(Cl)c2Cl)C1 [Example 550, 4-[trans-(1S,2S)-2-((R)-3-aminopiperidin-1-yl)-4,6-dichloroindan-1-yloxy]-2,3-dichlorobenzenesulfonamide] |
|  | > 6.00 | Cc1nnc(C)n1-c1ccc(O[C@H]2c3cc(Cl)ccc3C[C@@H]2N2CC[C@H](F)C2)c(Cl)c1 [Example 559, 4-{3-chloro-4-[trans-(1S,2S)-6-chloro-2-((S)-3-fluoropyrrolidin-1-yl)indan-1-yloxy]phenyl}-3,5-dimethyl-4H-[1,2,4]triazole] |
|  | 5.00 to 6.00 | CC(=O)Nc1cccc(O[C@H]2c3cc(Cl)cc(Cl)c3C[C@@H]2N2CCN(C)CC2)c1 [Example 697, N-{3-[trans-(1S,2S)-4,6-dichloro-2-(4-methylpiperazin-1-yl)indan-1-yloxy]phenyl}acetamide] |
